Assay results taken from US10669271B2, “Heterocyclic compounds as immunomodulators” (Incyte Corporation, priority 2018, dated 2020).

Tests used:
[1] = test system: U2OS/PD-L1 cells and Jurkat-PD-1-SHP cells; assay: Src homology region 2 domain-containing phosphatase (SHP) assay; assay type: cell-based; details: Homo sapiens; U2OS/PD-L1 cells with Jurkat-PD-1-SHP cells, 2 hours
Procedure: Example B. Src Homology Region 2 Domain-Containing Phosphatase (SHP) Assay
U2OS/PD-L1 cells (DiscoveRx Corporation) were maintained in McCoy's 5A medium with addition of 10% FBS, 0.25 μg/ml Puromycin. After removing the culture media, the cell medium was replaced with assay medium (RPMI1640 medium with 1% FBS). The U2OS/PD-L1 cells were then added in 384-well black clear bottom assay plate (CELLCOAT® Tissue Culture Plates, Greiner Bio-One) at 5000 cells per well in 20 μL assay medium. Test compounds were prepared by serial dilution in DMSO and 125 nL compound were first transferred to the 384 REMP plate well (Thermofisher) by ECHO liquid handler (Labcyte) followed with addition of 27.5 μL assay medium. 5 μL/well compounds in the assay medium were transferred to the cell plate with 0.05% DMSO in the final assay at 0.5 μM. Jurkat-PD-1-SHP cells (DiscoveRx Corporation) were cultured in RPMI1640 medium supplemented with 10% FBS, 250 μg/ml Hygromycin B, 500 μg/ml G418. After the replacement of culture media with assay medium, 5,000 Jurkat-PD-1-SHP cells in 20 μL were dispensed into each well. The assay plate was incubated at 37° C., 5% CO2 for 2 hours before 2.5 μL PathHunter reagent 1 (DiscoveRx Corporation) were added to each well. The assay plate was shaken for 1 min at 350 rpm in the dark followed with addition of 10 μL PathHunter reagent 2 (DiscoveRx Corporation). Chemiluminescent signal was recorded with TopCount reader (Perkin Elmer) after incubation at room temperature for 1 hour. Wells with DMSO were served as the positive controls and wells containing no cells were used as negative controls. IC50 determination was performed by fitting the curve of percentage of control activity versus the log of the compound concentration using the GraphPad Prism 6.0 software.

PD-1/PD-L1 = PD-1/PD-L1 (Homo sapiens (Human), UniProt Q9NZQ7); assay: Homogeneous Time-Resolved Fluorescence (HTRF) PD-1/PD-L1 binding assay; details: recombinant human PD-1 and PD-L1, 25° C., pH 7.4
Procedure: Example A. Homogeneous Time-Resolved Fluorescence (HTRF) PD-1/PD-L1 Binding Assay
The assays were conducted in a standard black 384-well polystyrene plate with a final volume of 20 μL. Inhibitors were first serially diluted in DMSO and then added to the plate wells before the addition of other reaction components. The final concentration of DMSO in the assay was 1%. The assays were carried out at 25° C. in the PBS buffer (pH 7.4) with 0.05% Tween-20 and 0.1% BSA. Recombinant human PD-L1 protein (19-238) with a His-tag at the C-terminus was purchased from AcroBiosystems (PD1-H5229). Recombinant human PD-1 protein (25-167) with Fc tag at the C-terminus was also purchased from AcroBiosystems (PD1-H5257). PD-L1 and PD-1 proteins were diluted in the assay buffer and 10 μL was added to the plate well. Plates were centrifuged and proteins were preincubated with inhibitors for 40 minutes. The incubation was followed by the addition of 10 μL of HTRF detection buffer supplemented with Europium cryptate-labeled anti-human IgG (PerkinElmer-AD0212) specific for Fc and anti-His antibody conjugated to SureLight®-Allophycocyanin (APC, PerkinElmer-AD0059H). After centrifugation, the plate was incubated at 25° C. for 60 min. before reading on a PHERAstar FS plate reader (665 nm/620 nm ratio). Final concentrations in the assay were—3 nM PD1,10 nM PD-L1, 1 nM europium anti-human IgG and 20 nM anti-His-Allophycocyanin. IC50 determination was performed by fitting the curve of percent control activity versus the log of the inhibitor concentration using the GraphPad Prism 5.0 software.

PD-L1 = PD-L1 (Homo sapiens (Human), UniProt Q9NZQ7); assay: PD-L1 whole blood internalization assay; assay type: cell-based; details: 1 ng/ml human interferon γ, PD-L1 expression on CD14+ cells, read-out: Whole Blood (24 HR) IC50
Procedure: Example D. PD-L1 Whole Blood Internalization Assay
To determine PD-L1 internalization in human whole blood, normal human blood (Biological Specialty Corp, Colmar. Pa.) was incubated in the presence or absence of a concentration range of test compounds and 1 ng/ml human interferon γ (R&D Systems Inc. Minn. […] Blood was then stained with PD-L1 (MIH1, eBioscience; or BD Biosciences San Jose, Calif.), CD14 (Life Technologies, Carlsbad, Calif.) for 30 minutes in the dark at room temperature. Whole Blood/red cells were lysed/fixed (lysis buffer BD Biosciences) for 5 minutes at 37° C. in the dark and then centrifuged at 1600 RPM for 5 minutes. Cells were resuspended in Stain Buffer (BD Bioscience, San Jose, Calif.) and transferred into 96 well round bottom plates (Corning). Cells were gated on CD14+(BD Biosciences) and PD-L1 expression determined by mean fluorescence intensity (MFI) (BD LSRFortessa™ X-20). IC50 determination was performed by fitting the curve of compound percent inhibition versus the log of the compound concentration using the GraphPad Prism 7.0 software.

[2] = test system: PD-L1 aAPC/CHO-K1 cells and Jurkat-PD-1-NFAT effector cells; assay: Nuclear factor of activated T-cells (NFAT) assay; assay type: cell-based; details: Cricetulus griseus; PD-L1 aAPC/CHO-K1 cells with Jurkat-PD-1-NFAT effector cells, 24 hours
Procedure: Example C. Nuclear Factor of Activated T-Cells (NFAT) Assay
PD-L1 aAPC/CHO-Klcells (Promega) were maintained in F-12 medium with addition of 10% FBS, 200 μg/ml Hygromycin B, 250 μg/ml Geneticin (G418). Jurkat-PD-1-NFAT effector cells (Promega) were cultured in RPMI 1640 medium supplemented with 10% FBS, 100 μg/ml Hygromycin B, 500 μg/ml G418. The culture media of PD-L1 aAPC/CHO-K1 cells were first replaced with assay medium (RPMI1640 medium with 1% FBS). The PD-L1 aAPC/CHO-K1 cells were then added in a white 384-well white clear bottom assay plate (CELLCOAT® Tissue Culture Plates, Greiner Bio-One) at 8000 per well in 10 μL assay medium. Test compounds were prepared by serial dilution in DMSO and 0.8 μL test compounds in DMSO were first transferred to the 384 REMP plate well (Thermofisher) by PlateMate Plus (Thermofisher) followed with addition of 50 μL plating medium. 5 μL compounds in the assay medium were transferred to the cells with 0.4% DMSO in the final assay at 2 μM. After removing the culture media, 10,000 Jurkat-PD-1-NFAT effector cells in 5 μL assay medium was dispensed into each well. The assay plate was incubated at 37° C., 5% CO2 for 24 hours. After the assay plate was equilibrated to room temp for 15 minutes, 20 µL/well of Bio-Glo™ reagent (Promega) were added. After 8 minutes incubation at room temperature, luminescence was read at with Pherastar microplate reader (BMG Labtech). The fold of induction (FOI) was calculated based on the ratio of luminescence normalized to the DMSO wells within each assay plate. The maximum percentage of induction was reported based on the ratio between the highest FOI of each compound and the maximum FOI of control compound within each assay plate. Wells with DMSO were served as the negative controls and wells containing control compound with the highest FOI were used as positive controls. EC50 determination was performed by fitting the curve of percent control activity versus the log of the compound concentration using the GraphPad Prism 6.0 software.

PD-L1, sequence (Q9NZQ7 19-290): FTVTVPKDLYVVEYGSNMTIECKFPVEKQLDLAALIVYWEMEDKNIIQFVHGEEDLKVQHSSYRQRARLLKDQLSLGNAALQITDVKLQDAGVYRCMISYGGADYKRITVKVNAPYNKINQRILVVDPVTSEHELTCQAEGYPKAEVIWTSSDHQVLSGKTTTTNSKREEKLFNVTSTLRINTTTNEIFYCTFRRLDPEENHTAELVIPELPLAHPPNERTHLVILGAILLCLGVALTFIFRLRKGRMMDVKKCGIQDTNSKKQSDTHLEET
PD-1/PD-L1, sequence (Q9NZQ7 19-238): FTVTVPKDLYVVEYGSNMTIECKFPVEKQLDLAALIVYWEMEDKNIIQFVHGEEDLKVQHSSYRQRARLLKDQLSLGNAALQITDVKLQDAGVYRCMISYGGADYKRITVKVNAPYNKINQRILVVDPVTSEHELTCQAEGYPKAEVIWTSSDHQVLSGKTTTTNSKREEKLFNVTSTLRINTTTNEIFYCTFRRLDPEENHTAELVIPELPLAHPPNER

| SMILES | IC50 [1] | IC50 (PD-1/PD-L1) | IC50 (PD-L1) | EC50 [2] |
| --- | --- | --- | --- | --- |
| Cc1c(Nc2nc(C(F)F)nc3cc(CN4CC[C@@H](O)C4)cnc23)cccc1-c1cccc(-c2nc3cc(CN4CC[C@@](C)(C(=O)O)C4)cc(C#N)c3o2)c1C [Example 18, (R)-1-((7-cyano-2-(3′-(2-(difluoromethyl)-7-(((R)-3-hydroxypyrrolidin-1-yl)methyl)pyrido[3,2-d]pyrimidin-4-ylamino)-2,2′-dimethylbiphenyl-3-yl)benzo[d]oxazol-5-yl)methyl)-3-methylpyrrolidine-3-carboxylic Acid] | ≤ 10 nM | ≤ 10 nM | 10 to 100 nM | 10 to 100 nM |
| Cc1nc(Nc2cccc(-c3cccc(-c4nc5cc(CN6CCC(C(=O)O)CC6)cc(C#N)c5o4)c3C)c2C)c2ncc(CN[C@@H](C)CO)cc2n1 [Example 4, (S)-1-((7-cyano-2-(3′-(7-((1-hydroxypropan-2-ylamino)methyl)-2-methylpyrido[3,2-d]pyrimidin-4-ylamino)-2,2′-dimethylbiphenyl-3-yl)benzo[d]oxazol-5-yl)methyl)piperidine-4-carboxylic Acid] | ≤ 10 nM | ≤ 10 nM | 10 to 100 nM | 10 to 100 nM |
| Cc1nc(Nc2cccc(-c3cccc(-c4nc5cc(CN6CC[C@@H](C(=O)O)C6)cc(C#N)c5o4)c3C)c2C)c2ncc(CN3CC[C@@](C)(O)C3)cc2n1 [Example 7, (R)-1-((7-cyano-2-(3′-(7-(((R)-3-hydroxy-3-methylpyrrolidin-1-yl)methyl)-2-methylpyrido[3,2-d]pyrimidin-4-ylamino)-2,2′-dimethylbiphenyl-3-yl)benzo[d]oxazol-5-yl)methyl)pyrrolidine-3-carboxylic Acid] | ≤ 10 nM | ≤ 10 nM | 10 to 100 nM | 10 to 100 nM |
| Cc1nc(Nc2cccc(-c3cccc(-c4nc5cc(CN6CC[C@@](C)(C(=O)O)C6)cc(C#N)c5o4)c3C)c2C)c2ncc(CN3CC[C@@](C)(O)C3)cc2n1 [Example 12, (R)-1-((7-cyano-2-(3′-(7-(((R)-3-hydroxy-3-methylpyrrolidin-1-yl)methyl)-2-methylpyrido[3,2-d]pyrimidin-4-ylamino)-2,2′-dimethylbiphenyl-3-yl)benzo[d]oxazol-5-yl)methyl)-3-methylpyrrolidine-3-carboxylic Acid] | ≤ 10 nM | ≤ 10 nM | 10 to 100 nM | 10 to 100 nM |
| Cc1c(Nc2nc(C3CC3)nc3cc(CN4CC[C@@H](O)C4)cnc23)cccc1-c1cccc(-c2nc3cc(CN4CC[C@@H](C(=O)O)C4)cc(C#N)c3o2)c1C [Example 28, (R)-1-((7-cyano-2-(3′-(2-cyclopropyl-7-(((R)-3-hydroxypyrrolidin-1-yl)methyl)pyrido[3,2-d]pyrimidin-4-ylamino)-2,2′-dimethylbiphenyl-3-yl)benzo[d]oxazol-5-yl)methyl)pyrrolidine-3-carboxylic Acid] | 10 to 100 nM | ≤ 10 nM | 100 to 500 nM | 10 to 100 nM |
| Cc1nc(Nc2cccc(-c3cccc(-c4nc5cc(CN6CCC(C(=O)O)CC6)cc(C#N)c5o4)c3C)c2C)c2ncc(CNC[C@H](C)O)cc2n1 [Example 5, (S)-1-((7-cyano-2-(3′-(7-((2-hydroxypropylamino)methyl)-2-methylpyrido[3,2-d]pyrimidin-4-ylamino)-2,2′-dimethylbiphenyl-3-yl)benzo[d]oxazol-5-yl)methyl)piperidine-4-carboxylic Acid] | 10 to 100 nM | ≤ 10 nM | 100 to 500 nM | 10 to 100 nM |
| Cc1nc(Nc2cccc(-c3cccc(-c4nc5cc(CN6CC[C@@H](C(=O)O)C6)cc(C#N)c5o4)c3C)c2C)c2ncc(CN3CC[C@](C)(O)C3)cc2n1 [Example 8, (R)-1-((7-cyano-2-(3′-(7-(((S)-3-hydroxy-3-methylpyrrolidin-1-yl)methyl)-2-methylpyrido[3,2-d]pyrimidin-4-ylamino)-2,2′-dimethylbiphenyl-3-yl)benzo[d]oxazol-5-yl)methyl)pyrrolidine-3-carboxylic Acid] | ≤ 10 nM | ≤ 10 nM | 10 to 100 nM | 10 to 100 nM |
| Cc1nc(Nc2cccc(-c3cccc(-c4nc5cc(CN6CC[C@@](C)(C(=O)O)C6)cc(C#N)c5o4)c3C)c2C)c2ncc(CN3CC[C@@H](O)C3)cc2n1 [Example 11, (R)-1-((7-cyano-2-(3′-(7-(((R)-3-hydroxypyrrolidin-1-yl)methyl)-2-methylpyrido[3,2-d]pyrimidin-4-ylamino)-2,2′-dimethylbiphenyl-3-yl)benzo[d]oxazol-5-yl)methyl)-3-methylpyrrolidine-3-carboxylic Acid] | ≤ 10 nM | ≤ 10 nM | 10 to 100 nM | 10 to 100 nM |
| Cc1nc(Nc2cccc(-c3cccc(-c4nc5cc(CN6CCC(C(=O)O)CC6)cc(C#N)c5o4)c3C)c2C)c2ncc(CN3CC[C@](C)(O)C3)cc2n1 [Example 3, (S)-1-((7-cyano-2-(3′-(7-((3-hydroxy-3-methylpyrrolidin-1-yl)methyl)-2-methylpyrido[3,2-d]pyrimidin-4-ylamino)-2,2′-dimethylbiphenyl-3-yl)benzo[d]oxazol-5-yl)methyl)piperidine-4-carboxylic Acid] | ≤ 10 nM | ≤ 10 nM | 10 to 100 nM | 10 to 100 nM |
